Experimental data reported in patent publication US4202967A, “N,N-pentamethylene derivatives of daunomycin and adriamycin” (SRI International, priority 1978, dated 1980).
pIC50: −log10 of the molar value. Counter-ions that a name gives are not always drawn. Like-named read-outs stand apart in the source and are kept apart here.

Tests used:
[1] = tested on: P388 lymphocytic leukemia; test: Antitumor activity in mice (P388, qd 5,9,13); type: in vivo; conditions: ip; for T/C (P388, qd 5,9,13): at optimal dose, days 5, 9, 13, ratio of average survival times treated/untreated, active if T/C ≥ 120; for Opt. Dose (P388, qd 5,9,13): days 5, 9, 13
Experimental: (§1) As indicated above, the compounds of the present invention have improved antitumor activity. This is evidenced by the data given below. In one operation, conducted in accordance with Protocol 1200 set forth in Cancer Chemotherapy Reports, National Cancer Institute, Vol. 3, No. 2, Part 3, September 1972, healthy mice were inoculated i.p. with Limphocytic Leukemia P-388 ascitic fluid. The inoculated mice were then treated i.p. for the succeeding 9 day period with varying amounts of the test chemicals of Example 2 while others of the mice were similarly inoculated with adrimycin hydrochloride and with daunomycin hydrochloride, the dosage pattern being set forth in the table given below. The average survival times of the treated mice was then determined, as was that of the control mice, which were inoculated with the ascitic fluid but given no treatment with the test chemicals. Presented in the following table under the T/C column headings are data obtained by dividing the survival time of the treated mice with that of the control mice, the quotient so obtained being multiplied by 100.
(§2) ^b Assays arranged through Drug Research and Development Program,
(§3) Division of Cancer Treatment, National Cancer Institute. BDF or CDF mice
(§4) are injected ip with […] P388 lymphocytic leukemia cells on Day 0
(§5) and are treated ip on Days 1-9 or days 5, 9, 13 with the specified drug
(§6) dose. For detailed protocols see R. I. Geran, N. H. Greenberg, M. M.
(§7) MacDonald, A. M. Schumacher, and B. J. Abbott, Cancer Chemother. Rep.,
(§8) ^c Ratio of average survival times of treated mice to untreated
(§9) controls in percent. The average survival time of untreated controls is
(§10) approximately 11 days. Activity is defined as values of T/C ≥ 120
(§11) in the qd 5, 9, 13 protocol and T/C ≥ 125 in the qd 1-9 protocol.

[2] = tested on: RNA synthesis in L1210 cells; test: Inhibition of RNA synthesis (incorporation of tritiated 3H-uridine) in cultured L1210 cells; type: cell-based; conditions: for pIC50: Mus musculus; for Nucleic Acid Syn Inhibn, ED50 ratio DNA/RNA: ED50 DNA divided by ED50 RNA
Experimental: (§12) Also presented in the table are the results of in vitro tests using cultured L1210 cells in which the activity of each chemical enumerated in the following table is presented in relation to its potency as an inhibitor of nucleic acid synthesis. Data for daunomycin and adriamycin are also included in the table for the sake of comparison. More specifically, the inhibition of the synthesis of DNA and RNA by each compound was measured as a function of its activity in inhibiting incorporation of tritiated ^3 H-thymidine or ^3 H-uridine into DNA and RNA, respectively. ED50 represents the concentration, in micromolar units, which inhibits incorporation of 50% of tritiated ^3 H-thymidine or ^3 H-uridine into the DNA and RNA of the test cells.
(§13) ^a ΔTm and Ed50 values were determined by the method of G.
(§14) Tong, W. W. Lee, D. R. Black, and D. W. Henry, J. Med. Chem., 19, 395
(§15) (1976), except that the drugs were initially dissolved in a volume of DMS
(§16) the assay medium. This modification greatly aided solubilization and did
(§17) not affect assay results, according to extensive control experiments.

[3] = tested on: DNA synthesis in L1210 cells; test: Inhibition of DNA synthesis (incorporation of tritiated 3H-thymidine) in cultured L1210 cells; type: cell-based; conditions: Mus musculus
Experimental: as §12, §13, §14, §15, §16, §17

[4] = tested on: P388 lymphocytic leukemia; test: Antitumor activity in mice (P388, qd 1-9); type: in vivo; conditions: ip; for T/C (P388, qd 1-9): at optimal dose, days 1-9, ratio of average survival times treated/untreated, active if T/C ≥ 125; for Opt. Dose (P388, qd 1-9): days 1-9
Experimental: as §1, §2, §3, §4, §5, §6, §7, §8, §9, §10, §11

[5] = ΔTm; type: binding; conditions: drugs initially dissolved in DMSO; final DMSO 5%
Experimental: as §13, §14, §15, §16, §17

[6] = L1210, read-out: Nucleic Acid Syn Inhibn, ED50 RNA
[7] = L1210, read-out: Nucleic Acid Syn Inhibn, ED50 DNA

| SMILES | T/C (P388, qd 5,9,13) [1] | Opt. Dose (P388, qd 5,9,13) [1] | pIC50 [2, 6] | pIC50 [3, 7] | T/C (P388, qd 1-9) [4] | Opt. Dose (P388, qd 1-9) [4] | ΔTm [5] | Nucleic Acid Syn Inhibn, ED50 ratio DNA/RNA ([2]; L1210 cells) | pIC50 ([2]; L1210 cells, 3H-uridine incorporation, 50% inhibition, final DMSO 1%, read-out: Nucleic Acid Syn Inhibn, ED50 RNA) | pIC50 ([3]; L1210 cells, 3H-thymidine incorporation, 50% inhibition, final DMSO 1%, read-out: Nucleic Acid Syn Inhibn, ED50 DNA) |
| --- | --- | --- | --- | --- | --- | --- | --- | --- | --- | --- |
| COc1cccc2c1C(=O)c1c(O)c3c(c(O)c1C2=O)C[C@@](O)(C(C)=O)C[C@@H]3O[C@H]1C[C@H](N)[C@H](O)[C@H](C)O1 [Daunomycin hydrochloride] | 132% | 8 mg/kg | 6.48 | 6.18 | 160% | 0.78 mg/kg | – | – | – | – |
| COc1cccc2c1C(=O)c1c(O)c3c(c(O)c1C2=O)C[C@@](O)(C(O)CO)C[C@@H]3O[C@H]1C[C@H](N2CCCCC2)[C@H](O)[C@H](C)O1 (stereo partly drawn) [N,N-Pentamethylene-13-dihydroadriamycin] | 143% | 18 mg/kg | 7.00 | 6.14 | 157% | 1.56 mg/kg | 12.5 °C | 7.2 | – | – |
| COc1cccc2c1C(=O)c1c(O)c3c(c(O)c1C2=O)C[C@@](O)(C(=O)CO)C[C@@H]3O[C@H]1C[C@H](N2CCCCC2)[C@H](O)[C@H](C)O1 [N,N-Pentamethyleneadriamycin] | 155% | 9.4 mg/kg | – | – | 190% | 3.13 mg/kg | 15.4 °C | 17.5 | 7.40 | 6.15 |
| COc1cccc2c1C(=O)c1c(O)c3c(c(O)c1C2=O)C[C@@](O)(C(=O)CO)C[C@@H]3O[C@H]1C[C@H](N)[C@H](O)[C@H](C)O1 [Adriamycin hydrochloride] | 159% | 8 mg/kg | 6.24 | 5.82 | 197% | 0.78 mg/kg | 13.4 °C | 2.6 | – | – |
